{"source": "patent US6737237B1", "about": "“Antimicrobial agents, diagnostic reagents, and vaccines based on unique Apicomplexan parasite components” (Apicomplexan Therapeutics, LLC, priority 1999, dated 2004)", "key": {"[1]": {"tested_on": "T. gondii tachyzoites (RH strain)", "experiment": "microbe, parasite or virus in culture", "format": "cell-based, Toxoplasma gondii", "experimental": "The improvements are based on microscopic visual imspection of infected and inhibitor treated cultures, and on quantitation of nucleic acid synthesis of the parasite by measure intake of ^3H uracil onto the parasite's nucleic acid. Uracil is not utilized by mammalian cells. […] Only the RH strain tachyzoites, cultured for up to 72 hours, had been used in previously reported assays. The use of Me49, Ptg, and R5 mutant are unique aspects of the methods used in these assays in this invention.\n(§1) In these assays toxicity of a candidate inhibitor was assessed by its ability to prevent growth of human foreskin fibroblasts (HFF) after 4 days and after 8 days as measured by tritiated thymidine uptake and microscopic evaluation. Confluent monolayers of HFF were infected with tachyzoites and bradyzoites. Inhibitor was added one hour later. Non-toxic doses were used in parasite growth inhibition assays. Parasite growth was measured by ability to incorporate tritiated uracil during the last 18 hours of culture.\n(§2) First the toxicity of gabaculine was assessed by its ability to prevent growth of human foreskin fibroblasts (HFF) as measured by ^3H-thymidine uptake and microscopic evaluation. Non-toxic doses were used in parasite growth inhibition assays. in vitro parasite growth inhibition assays included confluent monolayers of HFF infected with tachyzoites (RH) or mutant Me49 (R5). Gabaculine was added 1 hour later. Parasite growth was measured by the ability to incorporate ^3H-uracil during the last 18 hours of culture. In addition, parasite growth was evaluated microscopically in Giemsa stained slides.\nii) in vitro Parasite Growth Inhibition Assays: Confluent monolayers of HFF cells, grown in 96-well plates are infected with T. gondii tachyzoites of the RH strain and serial dilutions of anti-microbial compound are applied 1 hour later. T. gondii growth is assessed in these cultures by their ability to incorporate tritiated uracil (2.5 μCi/well) added during the last 18 hours of culture. After harvesting cells with an automatic cell harvester, uracil incorporation is measured by liquid scintillation."}, "C. parvum": {"tested_on": "C. parvum", "experiment": "C. parvum infection of MDBKF5D2 cell monolayers, immunofluorescence assay at 48 hours", "format": "cell-based, Cryptosporidium parvum", "conditions": "for approximate 95% C1 count (mean parasite count per field): media alone ~1800", "experimental": "C. parvum oocysts at 50,000/well were incubated at 37° C. (8% CO2) on confluent MDBKF5D2 cell monolayers in 96 well microtiter plates with the following concentrations of each drug. […] The level of infection of each well was determined and analyzed by an immunofluorescence assay at 48 hours using an antibody to C. parvum sporozoites made in rabbits at a concentration of 0.1%. Fluorescein-conjugated goat anti-rabbit antibody was used at a concentration of 1%.\n(8% carbon dioxide) on confluent MDBKF5D2 cell monolayers in 96 well microtiter plates. The level of infection of each well was determined and analyzed by an immunofluorescence assay at 48 hours using as an antibody C. parvum sporozoite rabbit anti-serum (0.1%), and using fluorescein-conjugated goat anti-rabbit antibody (1%). Data are expressed as mean parasite count/field when 16 fields counted at 10× magnification “s.d. of the mean” (FIG. 6)."}, "[2]": {"tested_on": "T. gondii isocitrate lyase", "experiment": "Isocitrate lyase enzyme activity in T. gondii tachyzoite lysates", "format": "biochemical, Toxoplasma gondii", "experimental": "Parasite lysates were obtained from tachyzoites, suspended in elution buffer (100 mM KCL, 20% gylcerol 7 mM 2-mercaptoethanol, 20 mM Tris-HCL, pH 7.5, and complete protease inhibitor cocktail) [Boehringer Mannheim, 1 table per 50 ml buffer], sonicated 3 times for 3 seconds at 30 sec intervals, and centrifuged at 12,000 g for 15 min. The supernatant collected was applied to a Sephadex® G100 column (25 ml, Pharmacia) equilibrated with elution buffer, eluted with 15 ml of elution buffer,. and ≈1.5 ml fractions were collected. Fraction(s) with the peak protein concentrations (protein analysis performed on a spectrophotometer at 280 nm) were selected and used in enzyme assays.\nA discontinuous method descrobed by Ko and McFadden^17 was employed with minor modifications to measure the ability of isocitrate lyase to convert isocitrate to succinate and glyoxylate. This method utilizes the colorimetric reaction between the phenylhydrozone of glyoxylate and ferricyanide. Reaction mixtures (92 mM MOPS, 5 mM MgCL2, 1 mM DTT, 1% phenylhydrazine, 4.4 mM isocitrate, in 0.5 ml with fractionated parasite lysate) were incubated in a 37° C. water bath for a determined amount of time. After incubation, enzymatic reactions were stopped with concentrated HCl, mixed with 25% (w/v) potassium ferricyanide, and then measured in a spectrophotometer at 520 nm."}, "[3]": {"tested_on": "D6 clone of Plasmodium falciparum", "experiment": "P. falciparum in vitro assay (Milhous et al., 1985), D6 clone", "format": "cell-based", "conditions": "D6 clone, folate deficient RPMI 1640, 66 hour incubation"}, "[4]": {"tested_on": "P. falciparum asexual erythrocytic forms", "experiment": "P. falciparum in vitro growth, clone not stated", "format": "cell-based, Plasmodium falciparum", "experimental": "This assay is performed in folate deficient RPMI 1640 over a 66 hour incubation in plasma as described by Milhous et al. (1985). Both the W2 clone DHFR resistant phenotype and the D6 clone are used (Odula et al., 1988) (Table 3)."}, "T. gondii": {"tested_on": "T. gondii", "experiment": "Assay for synergy in vitro: inhibitors alone and together on replication of T. gondii (uracil CPM)", "format": "cell-based, Toxoplasma gondii", "conditions": "Drug A alone: NPMG (3.25 mM)", "text": "The effect of enzymes in pathways “in parallel” are additive and in “series” are more than the additive effect of either inhibitor used alone (i.e., synergistic). […] The shikimate pathway produces 3,4-dihdroxybenzoate which is converted to ubiquinone, an essential component of the electron transport chain. Thus, NPMG, an inhibitor of EPSP-synthase, indirectly affects ubiquinone production and, thus, the electron transport chain. Similarly, heme is required for production of cytochromes in the electron transport chain. Thus, inhibition of heme production by gabaculine also indirectly affects the conventional electron transport chain. […] T. gondii growth is measured by their ability to incorporate tritiated uracil and is expressed as counts/minute (CPM).\ng) Assays for Synergy in vitro: This is an assy in which ≦50% inhibitor concentrations of two antimicrobial agents are added alone and together to determine whether there is an additive, synergistic or inhibitory interaction. All other aspects of this assay are as described herein."}, "T. gondii EPSP synthase": {"tested_on": "T. gondii EPSP synthase", "experiment": "T. gondii EPSP synthase enzyme activity (HPLC)", "format": "biochemical, Toxoplasma gondii", "conditions": "1 mM", "experimental": "Assays for 4-aminobenzoate and 4-amino-4-deoxychorismate are performed as described previously.” Enzyme Assays: The 5-enolpyruvylshikimate-3-phosphate (EPSP) synthase assay entailed monitoring the generation of EPSP using HPLC. Reaction components were separated using a Hypersil H3APS2 HPLC column (Hichrom Limited, Reading, UK) and a NaH2PO4 elution gradient (50-400 mM). UV spectra (200-300 nm) of the colume eluate were collected to identify eluants. […] The peaks at 215 nm were integrated; the EPSP produced was quantified using a standard curve of authentic EPSP. Parasite extracts were produced at 4° C. by suspension of pure tachyzoites in extraction buffer (50 mM Tris.HCl, pH 7.5, containing complete TM protease inhibitor cocktail [Boehringer Mannheim, 1 tablet per 50 ml buffer]), sonication 3 times for 3 seconds at 30 second intervals, and centrifugation at 12000 g for 15 min. The resulting supernatant was diluted 6-fold with extraction buffer and loaded onto a ResourceQ column (1 ml, Pharmacia) equilibrated with extraction buffer. The bound protein was eluted in a single step using extraction buffer containing 500 mM Kcl. The eluted material was used for enzyme assay. The assay mix contained 1 mM phosphoenolpyruvate, 1 mM SP and 50 mM HEPES, pH 7.5. […] Protein concentrations of lysates were determined using the Lowry method. […]"}, "[5]": {"tested_on": "mutant R5 strain of T. gondii", "experiment": "Growth of mutant R5 strain of T. gondii in HFF over 8 days, uracil uptake", "format": "cell-based, Toxoplasma gondii", "conditions": "gabaculine 20 mM; P/S", "experimental": "Improvements were developed in the assays reported by Mack et al. (1984) and Holfels et al. (1994) to measure T. gondii replication in tissue culture. The improvements are based on microscopic visual imspection of infected and inhibitor treated cultures, and on quantitation of nucleic acid synthesis of the parasite by measure intake of ^3H uracil onto the parasite's nucleic acid. Uracil is not utilized by mammalian cells. […]\nFirst the toxicity of gabaculine was assessed by its ability to prevent growth of human foreskin fibroblasts (HFF) as measured by ^3H-thymidine uptake and microscopic evaluation. […] Parasite growth was measured by the ability to incorporate ^3H-uracil during the last 18 hours of culture. In addition, parasite growth was evaluated microscopically in Giemsa stained slides.\nThis mutant strain is atovaquone resistant and posseses certain characterisitics of the tachyzoite stage and certain characteristics of the bradyzoite stage. T. gondii growth is measure by their ability to incorporate tritiated uracil and is expressed as counts/minute (CPM) on the Y-axis. […]"}, "[6]": {"tested_on": "human foreskin fibroblasts (HFF)", "experiment": "Toxicity: growth of fibroblasts, tritiated thymidine uptake and microscopic evaluation", "format": "cell-based", "conditions": "similar concentrations (20 mM gabaculine)", "experimental": "as §1, §2\nd) Inhibitors: Inhibitor compounds are tested over a range of concentrations for toxicity against mammalian cells by assessing their ability to prevent cell growth as measured by tritiated thymidine uptake and inspection of the monolayer using microscopic evaluation. […]"}}, "note": "Several values for one entry are separate records, joined by “and”; a condition that tells them apart may be missing. Equal values may be shown once. Read-outs that look alike come from different tables or passages of the source.", "data": [{"smiles": "O=C(O)CC[N+](=O)[O-]", "note": "[3-NPA, 3-Nitropropionic acid]", "values": [{"measurement": "CPM restricted (tritiated uracil incorporation)", "setting": "[1]; 3-NPA 0.006 mg ml, 4-day, medium about 30,000 CPM", "value": "around 60%"}, {"measurement": "effect on Cryptosporidia in vitro", "setting": "C. parvum", "value": "inhibited"}, {"measurement": "Isocitrate lyase enzyme activity", "setting": "[2]", "value": "inhibition"}]}, {"smiles": "O=C(O)CNCP(=O)(O)O", "note": "[NPMG, N-(phosphonomethyl) glycine]", "values": [{"measurement": "CPM restricted (tritiated uracil incorporation)", "setting": "[1]; NPMG 3.12 mM, 4 day, medium around 72,000", "value": "around 60%"}, {"measurement": "counts (tritiated uracil incorporation)", "setting": "[1]; NPMG 4.5 mM, 4 day, medium around 72,000, no RH around 2,000 CPM", "value": "about 12,000 CPM"}, {"measurement": "product rescue: effect of added PABA on inhibition by NPMG", "setting": "[1]; PABA added to cultures", "value": "abrogates"}, {"measurement": "inhibition at 4500 µM", "setting": "[1]; Toxoplasma gondii, Fibroblast, 96 h, NPMG 4.5 mM, 4 day, read-out: parasite growth inhibited", "value": "~80", "unit": "%"}, {"measurement": "approximate 95% C1 count (mean parasite count per field)", "setting": "C. parvum; NPMG 0.45 μg/ml", "value": "~1200"}, {"measurement": "approximate 95% C1 count (mean parasite count per field)", "setting": "C. parvum; NPMG 4.5 μg/ml", "value": "~900"}, {"measurement": "approximate 95% C1 count (mean parasite count per field)", "setting": "C. parvum; NPMG 0.045", "value": "~1200"}, {"measurement": "effect of PABA on the effect of NPMG on C. parvum", "setting": "C. parvum; PABA added", "value": "not abrogated by PABA"}, {"measurement": "IC50", "setting": "[3]; read-out: IC 50", "value": 0.823, "unit": "µg/mL"}, {"measurement": "IC90", "setting": "[3]; read-out: IC90", "value": 2.51, "unit": "µg/mL"}, {"measurement": "antagonism of glyphosate growth inhibition by products", "setting": "[4]; asexual erythrocytic forms, PABA and folate added", "value": "PABA and folate antagonism of growth inhibition"}, {"measurement": "CPM for A", "setting": "T. gondii", "value": "28138 ± 2216 CPM and 25097 ± 1398 CPM"}, {"measurement": "EPSP synthase enzyme activity", "setting": "T. gondii EPSP synthase", "value": "inhibition"}]}, {"smiles": "NC1C=CC=C(C(=O)O)C1", "note": "(centres unmarked) [gabaculine, 3-amino-2,3-dihydrobenzoic acid]", "values": [{"measurement": "CPM restricted (tritiated uracil incorporation)", "setting": "[1]", "value": "around 50%"}, {"measurement": "counts (tritiated uracil incorporation)", "setting": "[1]", "value": "about 5,000 CPM"}, {"measurement": "inhibition at 5000 µM", "setting": "[1]; Toxoplasma gondii, Fibroblast, 96 h, read-out: growth of T. gondii inhibited", "value": "~60", "unit": "%"}, {"measurement": "Parasite growth over the 8 day time course (CPM)", "setting": "[1]; gabaculine 20 mM, P/S", "value": "restricted"}, {"measurement": "Parasite growth of R5 strain over 8 days (CPM)", "setting": "[5]", "value": "restricted in cultures with 20 mM gabaculine (gabaculine) over the first 6 days of culture"}, {"measurement": "toxicity to the foreskin fibroblasts", "setting": "[6]", "value": "no toxicity"}, {"measurement": "approximate 95% C1 count (mean parasite count per field)", "setting": "C. parvum; gabaculine 0.2 μg/ml", "value": "~1300"}, {"measurement": "approximate 95% C1 count (mean parasite count per field)", "setting": "C. parvum; gabaculine 2 μg/ml", "value": "~600"}, {"measurement": "approximate 95% C1 count (mean parasite count per field)", "setting": "C. parvum; gabaculine 20 μg/ml", "value": "~200"}, {"measurement": "IC50", "setting": "[4]; Plasmodium falciparum", "value": "≥ 45", "unit": "µg/mL"}]}]}
